Assay results as given in patent US9833497B2, “Human originated EGF domain proteins and use of the same” (CHENGDU SOURCEBIO LIMITED-LIABILITY COMPANY, priority 2013, dated 2017).

Assays:
Assay type in all cases: cell-based
Serratia marcescens = assay: MIC against Gram-negative bacteria: Serratia marcescens; conditions: for MIC S. marcescens: two-fold serial dilution; for MIC: S. marcescens; for MIC against S. marcescens: Serratia marcescens
Method in brief: (§1)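 Two-fold serial dilutions of each purified human EGF domain protein, three replicate wells per level, were combined with bacteria at a final 5×10^5 CFU/mL in LB. Cultures were shaken at 175 rpm, 37° C. The MIC was taken as the minimum concentration preventing growth.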

E. coli DH5α = assay: Antibacterial activity: MIC and growth curve against E. coli DH5α in 96-well plate; conditions: minimal inhibitory concentration against E. coli DH5α; 96-well plate, 5×10^5 CFU/mL, 37° C., judged after 8 h
Method in brief: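 MIC taken as lowest protein level with no bacterial growth, tracked by A600 every 30 min during 37 °C, 175 rpm culture. Two-fold protein series 50-12.5 μg/mL final, triplicate wells, against 5×10^5 CFU/mL of LB-washed mid-log cells.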

Citrobacter diversus = assay: MIC against Gram-negative bacteria: Citrobacter diversus; conditions: for MIC C. diversus: two-fold serial dilution; for MIC: C. diversus; for MIC against C. diversus: Citrobacter diversus
Method in brief: as §1

Aeromonas hydrophila = assay: MIC against Gram-negative bacteria: Aeromonas hydrophila; conditions: for MIC A. hydrophila: two-fold serial dilution; for MIC: A. hydrophila; for MIC against A. hydrophila: Aeromonas hydrophila
Method in brief: as §1

Proteus mirabilis = assay: MIC against Gram-negative bacteria: Proteus mirabilis; conditions: for MIC P. mirabilis: two-fold serial dilution; for MIC: P. mirabilis; for MIC against P. mirabilis: Proteus mirabilis
Method in brief: as §1

Moraxella catarrhalis = assay: MIC against Gram-negative bacteria: Moraxella catarrhalis; conditions: for MIC M. catarrhalis: two-fold serial dilution; for MIC: M. catarrhalis; for MIC against M. catarrhalis: Moraxella catarrhalis
Method in brief: as §1

E. coli BL21 = assay: MIC against Gram-negative bacteria: E. coli BL21; conditions: for MIC E. coli BL21: two-fold serial dilution; for MIC / MIC against E. coli BL21: E. coli BL21
Method in brief: as §1

Enterobacter cloacae = assay: MIC against Gram-negative bacteria: Enterobacter cloacae; conditions: for MIC E. cloacae: two-fold serial dilution; for MIC: E. cloacae; for MIC against E. cloacae: Enterobacter cloacae
Method in brief: as §1

Pseudomonas aeruginosa = assay: MIC against Gram-negative bacteria: Pseudomonas aeruginosa; conditions: for MIC P. aeruginosa: two-fold serial dilution; for MIC: P. aeruginosa; for MIC against P. aeruginosa: Pseudomonas aeruginosa
Method in brief: as §1

Proteus vulgaris = assay: MIC against Gram-negative bacteria: Proteus vulgaris; conditions: for MIC P. vulgaris: two-fold serial dilution; for MIC: P. vulgaris; for MIC against P. vulgaris: Proteus vulgaris
Method in brief: as §1

Klebsiella pneumonia = assay: MIC against Gram-negative bacteria: Klebsiella pneumonia; conditions: for MIC K. pneumonia: two-fold serial dilution; for MIC: K. pneumonia; for MIC against K. pneumonia: Klebsiella pneumonia
Method in brief: as §1

[1] = 10 h cultivation at 37° C., 5×10^5 CFU/mL
[2] = 5×10^5 CFU/mL, 10 h cultivation at 37° C.
[3] = 96-well plate, 5×10^5 CFU/mL, 37° C., 10 h

PRT1069 (VTNPCDRKKCEWLCLLSPSGPVCTCPNGKRLDNGTCV; listed as Homo sapiens)
MIC S. marcescens (Serratia marcescens; [1]): 25 mg/L | MIC (E. coli DH5α): 12.5 mg/L | MIC C. diversus (Citrobacter diversus; [1]): 50 mg/L | MIC A. hydrophila (Aeromonas hydrophila; [1]): 12.5 mg/L | MIC P. mirabilis (Proteus mirabilis; [1]): 12.5 mg/L | MIC M. catarrhalis (Moraxella catarrhalis; [1]): 25 mg/L | MIC E. coli BL21 (E. coli BL21; [1]): 50 mg/L | MIC E. cloacae (Enterobacter cloacae; [1]): 50 mg/L | MIC P. aeruginosa (Pseudomonas aeruginosa; [1]): 12.5 mg/L | MIC P. vulgaris (Proteus vulgaris; [1]): 25 mg/L | MIC K. pneumonia (Klebsiella pneumonia; [1]): 25 mg/L

PRT369 (DVDECLSSPCVSGVCRNLAGSYTCKCGPGSRLDPSGTFCL; listed as Homo sapiens)
MIC (Serratia marcescens; [1]): 12.5 mg/L | MIC (E. coli DH5α): 50 mg/L | MIC (Citrobacter diversus; [1]): 25 mg/L | MIC (Aeromonas hydrophila; [1]): 12.5 mg/L | MIC (Proteus mirabilis; [1]): 12.5 mg/L | MIC (Moraxella catarrhalis; [1]): 50 mg/L | MIC (E. coli BL21; [1]): 25 mg/L | MIC (Enterobacter cloacae; [1]): 25 mg/L | MIC (Pseudomonas aeruginosa; [1]): 12.5 mg/L | MIC (Proteus vulgaris; [1]): 50 mg/L | MIC (Klebsiella pneumonia; [1]): 50 mg/L

PRT1457 (CQCHGHADNCDTTSQPYRCLCSQESFTEGLHCDRCLPLYNDKPFRQGDQVYAFNCKP; listed as Homo sapiens)
MIC against S. marcescens (Serratia marcescens; [2]): 25 mg/L | MIC (E. coli DH5α): 12.5 mg/L | MIC against C. diversus (Citrobacter diversus; [2]): 12.5 mg/L | MIC against A. hydrophila (Aeromonas hydrophila; [2]): 12.5 mg/L | MIC against P. mirabilis (Proteus mirabilis; [2]): 25 mg/L | MIC against M. catarrhalis (Moraxella catarrhalis; [2]): 12.5 mg/L | MIC against E. coli BL21 (E. coli BL21; [2]): 25 mg/L | MIC against E. cloacae (Enterobacter cloacae; [2]): 12.5 mg/L | MIC against P. aeruginosa (Pseudomonas aeruginosa; [2]): 12.5 mg/L | MIC against P. vulgaris (Proteus vulgaris; [2]): 12.5 mg/L | MIC against K. pneumonia (Klebsiella pneumonia; [2]): 100 mg/L

PRT1139 (RYNLCDLLHNPCRNNSTCLALVDANQHCICREEFEGKNCE; listed as Homo sapiens)
MIC S. marcescens (Serratia marcescens; [1]): 25 mg/L | MIC (E. coli DH5α): 12.5 mg/L | MIC C. diversus (Citrobacter diversus; [1]): 50 mg/L | MIC A. hydrophila (Aeromonas hydrophila; [1]): 12.5 mg/L | MIC P. mirabilis (Proteus mirabilis; [1]): 50 mg/L | MIC M. catarrhalis (Moraxella catarrhalis; [1]): 12.5 mg/L | MIC E. coli BL21 (E. coli BL21; [1]): 25 mg/L | MIC E. cloacae (Enterobacter cloacae; [1]): 50 mg/L | MIC P. aeruginosa (Pseudomonas aeruginosa; [1]): 12.5 mg/L | MIC P. vulgaris (Proteus vulgaris; [1]): 12.5 mg/L | MIC K. pneumonia (Klebsiella pneumonia; [1]): 25 mg/L

PRT1377 (PASACPGGCGPRELCRAGQCVCVEGFRGPDC; listed as Homo sapiens)
MIC against S. marcescens (Serratia marcescens; [2]): 12.5 mg/L | MIC (E. coli DH5α): 25 mg/L | MIC against C. diversus (Citrobacter diversus; [2]): 12.5 mg/L | MIC against A. hydrophila (Aeromonas hydrophila; [2]): 50 mg/L | MIC against P. mirabilis (Proteus mirabilis; [2]): 12.5 mg/L | MIC against M. catarrhalis (Moraxella catarrhalis; [2]): 50 mg/L | MIC against E. coli BL21 (E. coli BL21; [2]): 50 mg/L | MIC against E. cloacae (Enterobacter cloacae; [2]): 12.5 mg/L | MIC against P. aeruginosa (Pseudomonas aeruginosa; [2]): 12.5 mg/L | MIC against P. vulgaris (Proteus vulgaris; [2]): 50 mg/L | MIC against K. pneumonia (Klebsiella pneumonia; [2]): 50 mg/L

PRT962 (NVDDCSPDPCHHGRCVDGIASFSCACAPGYTGTRCE; listed as Homo sapiens)
MIC (Serratia marcescens; 10 h cultivation at 37° C.): 25 mg/L | MIC (E. coli DH5α): 25 mg/L | MIC (Citrobacter diversus; 10 h cultivation at 37° C.): 12.5 mg/L | MIC (Aeromonas hydrophila; 10 h cultivation at 37° C.): 50 mg/L | MIC (Proteus mirabilis; 10 h cultivation at 37° C.): 50 mg/L | MIC (Moraxella catarrhalis; 10 h cultivation at 37° C.): 25 mg/L | MIC (E. coli BL21; 10 h cultivation at 37° C.): 50 mg/L | MIC (Enterobacter cloacae; 10 h cultivation at 37° C.): 25 mg/L | MIC (Pseudomonas aeruginosa; 10 h cultivation at 37° C.): 25 mg/L | MIC (Proteus vulgaris; 10 h cultivation at 37° C.): 12.5 mg/L | MIC (Klebsiella pneumonia; 10 h cultivation at 37° C.): 12.5 mg/L

PRT1203 (DIDECAEGRHYCRENTMCVNTPGSFMCICKTGYIRIDDYSCT; listed as Homo sapiens)
MIC against S. marcescens (Serratia marcescens; [3]): 50 mg/L | MIC (E. coli DH5α): 25 mg/L | MIC against C. diversus (Citrobacter diversus; [3]): 12.5 mg/L | MIC against A. hydrophila (Aeromonas hydrophila; [3]): 50 mg/L | MIC against P. mirabilis (Proteus mirabilis; [3]): 12.5 mg/L | MIC against M. catarrhalis (Moraxella catarrhalis; [3]): 50 mg/L | MIC against E. coli BL21 (E. coli BL21; [3]): 12.5 mg/L | MIC against E. cloacae (Enterobacter cloacae; [3]): 12.5 mg/L | MIC against P. aeruginosa (Pseudomonas aeruginosa; [3]): 50 mg/L | MIC against P. vulgaris (Proteus vulgaris; [3]): 25 mg/L | MIC against K. pneumonia (Klebsiella pneumonia; [3]): 25 mg/L

PRT1274 (DVDECAEGNGGCQQSCVNMMGSYECHCREGFFLSDNQ; listed as Homo sapiens)
MIC against S. marcescens (Serratia marcescens; [3]): 25 mg/L | MIC (E. coli DH5α): 12.5 mg/L | MIC against C. diversus (Citrobacter diversus; [3]): 25 mg/L | MIC against A. hydrophila (Aeromonas hydrophila; [3]): 50 mg/L | MIC against P. mirabilis (Proteus mirabilis; [3]): 25 mg/L | MIC against M. catarrhalis (Moraxella catarrhalis; [3]): 12.5 mg/L | MIC against E. coli BL21 (E. coli BL21; [3]): 50 mg/L | MIC against E. cloacae (Enterobacter cloacae; [3]): 12.5 mg/L | MIC against P. aeruginosa (Pseudomonas aeruginosa; [3]): 12.5 mg/L | MIC against P. vulgaris (Proteus vulgaris; [3]): 50 mg/L | MIC against K. pneumonia (Klebsiella pneumonia; [3]): 50 mg/L

PRT1337 (QTSACGPYVQFCHIHATCEYSNGTASCICKAGYEGDGTLCS; listed as Homo sapiens)
MIC against S. marcescens (Serratia marcescens; [3]): 12.5 mg/L | MIC (E. coli DH5α): 12.5 mg/L | MIC against C. diversus (Citrobacter diversus; [3]): 25 mg/L | MIC against A. hydrophila (Aeromonas hydrophila; [3]): 25 mg/L | MIC against P. mirabilis (Proteus mirabilis; [3]): 25 mg/L | MIC against M. catarrhalis (Moraxella catarrhalis; [3]): 12.5 mg/L | MIC against E. coli BL21 (E. coli BL21; [3]): 50 mg/L | MIC against E. cloacae (Enterobacter cloacae; [3]): 50 mg/L | MIC against P. aeruginosa (Pseudomonas aeruginosa; [3]): 12.5 mg/L | MIC against P. vulgaris (Proteus vulgaris; [3]): 50 mg/L | MIC against K. pneumonia (Klebsiella pneumonia; [3]): 25 mg/L

PRT932 (QVNECLSNPCIHGNCTGGLSGYKCLCDAGWVGINCE; listed as Homo sapiens)
MIC (Serratia marcescens; 10 h cultivation at 37° C.): 12.5 mg/L | MIC (E. coli DH5α): 25 mg/L | MIC (Citrobacter diversus; 10 h cultivation at 37° C.): 25 mg/L | MIC (Aeromonas hydrophila; 10 h cultivation at 37° C.): 12.5 mg/L | MIC (Proteus mirabilis; 10 h cultivation at 37° C.): 25 mg/L | MIC (Moraxella catarrhalis; 10 h cultivation at 37° C.): 12.5 mg/L | MIC (E. coli BL21; 10 h cultivation at 37° C.): 50 mg/L | MIC (Enterobacter cloacae; 10 h cultivation at 37° C.): 25 mg/L | MIC (Pseudomonas aeruginosa; 10 h cultivation at 37° C.): 12.5 mg/L | MIC (Proteus vulgaris; 10 h cultivation at 37° C.): 12.5 mg/L | MIC (Klebsiella pneumonia; 10 h cultivation at 37° C.): 12.5 mg/L
